Measurements taken from paper PMC8509773, “3-Pyridinylidene Derivatives of Chemically Modified Lupane and Ursane Triterpenes as Promising Anticancer Agents by Targeting Apoptosis” (International Journal of Molecular Sciences, 2021).

Legend:
BT-549 = assay: NCI-60 SRB screening (one-dose and five-dose); type: cell-based, human; details: 48 h
Summary of the method: (§1)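 Read-out is sulforhodamine B staining of cellular protein, giving percent growth relative to cultures not exposed to test agent. Exposure lasted 48 h at one compound concentration.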

CCRF-CEM = assay: NCI-60 SRB screening (one-dose and five-dose); type: cell-based, human; details: 48 h
Summary of the method: (§2)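 Growth inhibition is scored with sulforhodamine B after 48 h of continuous compound exposure. An MG_MID averages each parameter over the whole cell panel, insensitive lines being counted at the top tested concentration.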

CAKI-1 = assay: NCI-60 SRB screening (one-dose and five-dose); type: cell-based, human; details: 48 h
Summary of the method: as §2

UO-31 = assay: NCI-60 SRB screening (one-dose and five-dose); type: cell-based, human; details: 48 h
Summary of the method: (§3)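 Spectrophotometric SRB end point; 48-h drug exposure; percent of untreated-control growth reported.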

MDA-MB-231/ATCC = assay: NCI-60 SRB screening (one-dose and five-dose); type: cell-based, human; details: 48 h
Summary of the method: as §3

NCI-H23 = assay: NCI-60 SRB screening (one-dose and five-dose); type: cell-based, human; details: 48 h
Summary of the method: as §2

SNB-75 = assay: NCI-60 SRB screening (one-dose and five-dose); type: cell-based, human; details: 48 h
Summary of the method: as §2

OVCAR-3 = assay: NCI-60 SRB screening (one-dose and five-dose); type: cell-based, human; details: 48 h
Summary of the method: as §3

M14 = assay: NCI-60 SRB screening (one-dose and five-dose); type: cell-based, human; details: 48 h
Summary of the method: as §1

NCI/ADR-RES = assay: NCI-60 SRB screening (one-dose and five-dose); type: cell-based, human; details: 48 h
Summary of the method: as §3

TK-10 = assay: NCI-60 SRB screening (one-dose and five-dose); type: cell-based, human; details: 48 h
Summary of the method: as §1

NCI-H460 = assay: NCI-60 SRB screening (one-dose and five-dose); type: cell-based, human; details: 48 h
Summary of the method: as §3

SK-MEL-2 = assay: NCI-60 SRB screening (one-dose and five-dose); type: cell-based, human; details: 48 h
Summary of the method: as §2

NCI-H522 = assay: NCI-60 SRB screening (one-dose and five-dose); type: cell-based, human; details: 48 h
Summary of the method: as §1

KM-12 = assay: NCI-60 SRB screening (one-dose and five-dose); type: cell-based, human; details: 48 h
Summary of the method: as §3

HS 578T = assay: NCI-60 SRB screening (one-dose and five-dose); type: cell-based, human; details: 48 h
Summary of the method: as §2

LOX IMVI = assay: NCI-60 SRB screening (one-dose and five-dose); type: cell-based, human; details: Homo sapiens, five dose 0.01–100 μM, 48 h
Summary of the method: as §1

NCI-H226 = assay: NCI-60 SRB screening (one-dose and five-dose); type: cell-based, human; details: 48 h
Summary of the method: as §3

OVCAR-5 = assay: NCI-60 SRB screening (one-dose and five-dose); type: cell-based, human; details: 48 h
Summary of the method: as §3

NCI-H322M = assay: NCI-60 SRB screening (one-dose and five-dose); type: cell-based, human; details: 48 h
Summary of the method: as §1

[1] = system: NCI-60 cancer cell line panel; assay: NCI-60 cancer cell line panel screening (whole panel / subpanels); type: cell-based; details: for Selectivity index (SI): full panel MG_MID / subpanel MG_MID
Method: At first, compounds were tested in a single high dose concentration regimen (10 µM) against a panel of sixty various cancer cell lines; the results of the screening are outlined in Table 1 in the form of percent growth (GP %) of treated cells versus untreated cells used as control, where negative numbers indicate cell kill. The experimental results of growth inhibition may range from 0 to 100 and indicate a cytostatic effect while negative values indicate cell death and thus a cytotoxic activity (for NCI data see Supplementary Material Figures S6–S12).
The selectivity index (SI) was calculated by dividing the full panel MG_MID60 (μM) of tested compounds by their individual subpanel MG_MID of the cell line (μM); it correlates directly to the selectivity of their anticancer activity (Table 3). […] By contrast, despite its strong antiproliferative effect, compound 7 acts with low selectivity against the various human tumor cell lines, the highest SI value being 1.73.
Compounds 1, 2, and 4–8 were tested at one dose assay (10^−5 M) toward a panel of approximately sixty cancer cell lines representing different cancer types: leukemia, melanoma, lung, colon, CNS, ovarian, renal, prostate, and breast cancers. Primary anticancer assays were performed according to the NCI protocol as described elsewhere (see, e.g., http://dtp.nci.nih.gov accessed on 16 October 2019). The compounds were added at a single concentration and the cell cultures were incubated for 48 h. The end point determinations were made with a protein binding dye, sulforhodamine B (SRB). The results for each compound are reported as the percent growth (GP %) of treated cells compared to untreated control cells (negative numbers indicate cell kill). Compounds with considerable activity against all tested human tumor cell lines (6 and 7) were selected for the advanced assay against a panel of approximately sixty tumor cell lines at 10-fold dilutions of five concentrations (100 µM, 10 µM, 1 µM, 0.1 µM, and 0.01 µM). The percentage of growth was evaluated spectrophotometrically versus controls not treated with test agents after 48-h exposure and using SRB protein assay to estimate cell viability or growth. Three antitumor activity dose–response parameters were calculated for each cell line: GI50—molar concentration of the compound that inhibits 50% net cell growth; TGI—molar concentration of the compound leading to the total inhibition; and LC50—molar concentration of the compound leading to 50% net cell death (presented in negative logarithm). Furthermore, mean graph midpoints (MG_MID) were calculated for each of the parameters, giving an average activity parameter over all cell lines for the tested compound. For the MG_MID calculation, insensitive cell lines were included with the highest concentration tested.

[2] = Homo sapiens, five dose 0.01–100 μM

## COC(=O)[C@]12CC[C@@H](C(=O)/C=C/c3cccnc3)[C@@H]1[C@H]1CC[C@@H]3[C@@]4(C)C/C(=C\c5cccnc5)C(=O)C(C)(C)[C@@H]4CC[C@@]3(C)[C@]1(C)CC2 [Compound 7, methyl 2,30-bis-(3-pyridinylidene)-3,20-dioxo-lup-28-oate]
BT-549; BT-549, 10 μM
  Growth Percent: −92.12%
BT-549; Homo sapiens, BT-549, five dose 0.01–100 μM
  GI50: 220 nM
CCRF-CEM; 10 μM
  Growth Percent: 0.95%
CCRF-CEM; [2]
  GI50: 310 nM
CAKI-1; CAKI-1, 10 μM
  Growth Percent: −78.75%
CAKI-1; Homo sapiens, CAKI-1, five dose 0.01–100 μM
  GI50: 1090 nM
UO-31; Homo sapiens, UO-31, five dose 0.01–100 μM
  GI50: 170 nM
UO-31; UO-31, 10 μM
  Growth Percent: −100.00%
MDA-MB-231/ATCC; 10 μM
  Growth Percent: −81.32%
MDA-MB-231/ATCC; [2]
  GI50: 470 nM
NCI-H23; Homo sapiens, NCI-H23, five dose 0.01–100 μM
  GI50: 350 nM
NCI-H23; NCI-H23, 10 μM
  Growth Percent: −48.31%
SNB-75; Homo sapiens, SNB-75, five dose 0.01–100 μM
  GI50: 1350 nM
SNB-75; SNB-75, 10 μM
  Growth Percent: −98.68%
OVCAR-3; Homo sapiens, OVCAR-3, five dose 0.01–100 μM
  GI50: 270 nM
OVCAR-3; OVCAR-3, 10 μM
  Growth Percent: −93.24%
M14; Homo sapiens, M14, five dose 0.01–100 μM
  GI50: 310 nM
M14; M14, 10 μM
  Growth Percent: −80.31%
NCI/ADR-RES; 10 μM
  Growth Percent: −39.38%
NCI/ADR-RES; [2]
  GI50: 430 nM
TK-10; Homo sapiens, TK-10, five dose 0.01–100 μM
  GI50: 650 nM
TK-10; TK-10, 10 μM
  Growth Percent: −60.49%
NCI-H460; Homo sapiens, NCI-H460, five dose 0.01–100 μM
  GI50: 830 nM
NCI-H460; NCI-H460, 10 μM
  Growth Percent: −78.43%
SK-MEL-2; Homo sapiens, SK-MEL-2, five dose 0.01–100 μM
  GI50: 470 nM
SK-MEL-2; SK-MEL-2, 10 μM
  Growth Percent: -61.15%
NCI-H522; Homo sapiens, NCI-H522, five dose 0.01–100 μM
  GI50: 660 nM
NCI-H522; NCI-H522, 10 μM
  Growth Percent: −59.72%
KM-12; Homo sapiens, KM12, KM-12, five dose 0.01–100 μM
  GI50: 1080 nM
KM-12; KM-12, 10 μM
  Growth Percent: −74.98%
HS 578T; 10 μM
  Growth Percent: −49.05%
HS 578T; [2]
  GI50: 460 nM
LOX IMVI
  GI50: 210 nM
NCI-H226; Homo sapiens, NCI-H226, five dose 0.01–100 μM
  GI50: 1480 nM
NCI-H226; NCI-H226, 10 μM
  Growth Percent: −44.44%
OVCAR-5; Homo sapiens, OVCAR-5, five dose 0.01–100 μM
  GI50: 410 nM
OVCAR-5; OVCAR-5, 10 μM
  Growth Percent: −62.74%
NCI-H322M; 10 μM
  Growth Percent: −80.71%
NCI-H322M; [2]
  GI50: 1480 nM
[1]; Breast Cancer subpanel
  Selectivity index (SI): 1.34
[1]; CNS Cancer subpanel
  Selectivity index (SI): 0.72
[1]; Colon Cancer subpanel
  Selectivity index (SI): 1.07
[1]; Homo sapiens, five-dose testing, all cell lines, read-out: GI50 values, range over the NCI-60 panel
  GI50: 180 to 1530 nM
[1]; Leukemia subpanel
  Selectivity index (SI): 1.73
[1]; Melanoma subpanel
  Selectivity index (SI): 1.59
[1]; Non-Small Cell Lung Cancer subpanel
  Selectivity index (SI): 0.65
[1]; Ovarian Cancer subpanel
  Selectivity index (SI): 0.98
[1]; Prostate Cancer subpanel
  Selectivity index (SI): 0.50
[1]; Renal Cancer subpanel
  Selectivity index (SI): 1.23
